Test results published in the supplement of paper PMC5908809.

How the values were obtained:
[1] = system: normal NK cells expanded with K562-aAPC; assay: drug sensitivity score (DSS) (DSS units); higher = more sensitive; extreme values may be limits of the assay; settings: 72 h; IL-2 2.5 ng/mL
Method: (§1)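 Drug sensitivity and resistance testing on K562-aAPC-expanded normal NK cells: 5 concentrations (10-fold steps over a 10,000-fold range), 72 h at 37 °C, viability by CellTiter-Glo normalised to DMSO and benzethonium chloride controls; DSS from the fitted curve.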

[2] = system: normal NK cells expanded with K562-aAPC; assay: percent inhibition of viability; higher = more inhibition; settings: 72 h, IL-2 2.5 ng/mL
Method: as §1

[3] = system: normal primary NK cells, pool 2 (3 donors) (IL-2 2.5 ng/mL); assay: drug sensitivity score (DSS) (DSS units); higher = more sensitive; extreme values may be limits of the assay; settings: 72 h
NKL (IL-2 2.5 ng/mL) [4] = assay: as above; settings: 72 h
NK-92 (IL-2 2.5 ng/mL) [5] = assay: as above; settings: 72 h
[6] = system: normal primary NK cells, pool 3 (3 donors) (IL-2 2.5 ng/mL); assay: as above; settings: 72 h
YT (IL-2 2.5 ng/mL) [7] = assay: as above; settings: 72 h
NK-YS (IL-2 2.5 ng/mL) [8] = assay: as above; settings: 72 h
[9] = system: normal primary NK cells, pool 1 (3 donors) (IL-2 2.5 ng/mL); assay: as above; settings: 72 h
IMC-1 (IL-2 20 ng/mL) [10] = assay: as above; settings: 72 h
DERL-7 (IL-2 2.5 ng/mL) [11] = assay: as above; settings: 72 h
[12] = system: normal primary NK cells, pool 1 (3 donors), resting (IL-2 0 ng/mL); assay: as above; settings: 72 h
KHYG-1 (IL-2 2.5 ng/mL) [13] = assay: as above; settings: 72 h
KAI3 (IL-2 2.5 ng/mL) [14] = assay: as above; settings: 72 h
SNK-6 (IL-2 2.5 ng/mL) [15] = assay: as above; settings: 72 h
[16] = system: normal primary NK cells, pool 2 (3 donors) (IL-2 2.5 ng/mL); assay: percent inhibition of viability; higher = more inhibition; settings: 72 h
NKL (IL-2 2.5 ng/mL) [17] = assay: as above; settings: 72 h
NK-92 (IL-2 2.5 ng/mL) [18] = assay: as above; settings: 72 h
[19] = system: normal primary NK cells, pool 3 (3 donors) (IL-2 2.5 ng/mL); assay: as above; settings: 72 h
YT (IL-2 2.5 ng/mL) [20] = assay: as above; settings: 72 h
NK-YS (IL-2 2.5 ng/mL) [21] = assay: as above; settings: 72 h
[22] = system: normal primary NK cells, pool 1 (3 donors) (IL-2 2.5 ng/mL); assay: as above; settings: 72 h
IMC-1 (IL-2 20 ng/mL) [23] = assay: as above; settings: 72 h
DERL-7 (IL-2 2.5 ng/mL) [24] = assay: as above; settings: 72 h
[25] = system: normal primary NK cells, pool 1 (3 donors), resting (IL-2 0 ng/mL); assay: as above; settings: 72 h
KHYG-1 (IL-2 2.5 ng/mL) [26] = assay: as above; settings: 72 h
KAI3 (IL-2 2.5 ng/mL) [27] = assay: as above; settings: 72 h
SNK-6 (IL-2 2.5 ng/mL) [28] = assay: as above; settings: 72 h

N#CC[C@H](C1CCCC1)n1cc(-c2ncnc3[nH]ccc23)cn1 [Ruxolitinib] (max concentration tested 10000 nM)
Settings	drug sensitivity score
DERL-7 (IL-2 2.5 ng/mL) [11]	27.1
IMC-1 (IL-2 20 ng/mL) [10]	12.6
KAI3 (IL-2 2.5 ng/mL) [14]	32.2
KHYG-1 (IL-2 2.5 ng/mL) [13]	32.2
NK-92 (IL-2 2.5 ng/mL) [5]	25.6
NK-YS (IL-2 2.5 ng/mL) [8]	19.8
NKL (IL-2 2.5 ng/mL) [4]	32.6
SNK-6 (IL-2 2.5 ng/mL) [15]	25.9
YT (IL-2 2.5 ng/mL) [7]	17.8
[1]	26.7
[3]	19.8
[6]	18
[9]	18.5
[12]	0.6

percent inhibition of viability [%]
Settings	1 nM	10 nM	100 nM	1000 nM	10000 nM
DERL-7 (IL-2 2.5 ng/mL) [24]	9.24	20.8	64.2	101	101
IMC-1 (IL-2 20 ng/mL) [23]	1.77	-5.31	5.62	58.7	99.6
KAI3 (IL-2 2.5 ng/mL) [27]	18.2	33.2	84.8	97.7	101
KHYG-1 (IL-2 2.5 ng/mL) [26]	7.19	19.2	94.1	108	108
NK-92 (IL-2 2.5 ng/mL) [18]	14.7	23.2	54.9	93.3	105
NK-YS (IL-2 2.5 ng/mL) [21]	3.29	10.2	48.2	68.6	84.1
NKL (IL-2 2.5 ng/mL) [17]	-1.94	49.5	75.1	94.7	101
SNK-6 (IL-2 2.5 ng/mL) [28]	7.33	12.7	73.5	73.9	85.4
YT (IL-2 2.5 ng/mL) [20]	9.67	13.1	30.9	75.8	84.3
[2]	2.08	18.6	65.1	97.8	98.6
[16]	-1.35	14.5	50.1	65	71.7
[19]	3.79	6.55	43	64.5	74.2
[22]	2.57	6.3	49.3	58	74.3
[25]	7.5	-6.83	11.8	-24.4	27.4

O=P1(N(CCCl)CCCl)NCCCO1 (stereo not drawn) [Cyclophosphamide] (max concentration tested 40000 nM)
Settings	drug sensitivity score
DERL-7 (IL-2 2.5 ng/mL) [11]	0
IMC-1 (IL-2 20 ng/mL) [10]	0
KAI3 (IL-2 2.5 ng/mL) [14]	3.77
KHYG-1 (IL-2 2.5 ng/mL) [13]	0
NK-92 (IL-2 2.5 ng/mL) [5]	0
NK-YS (IL-2 2.5 ng/mL) [8]	0
NKL (IL-2 2.5 ng/mL) [4]	0
SNK-6 (IL-2 2.5 ng/mL) [15]	0
YT (IL-2 2.5 ng/mL) [7]	0
[1]	1.42
[3]	1.01
[6]	0.44
[9]	1.52
[12]	6.32

percent inhibition of viability [%]
Settings	4 nM	40 nM	400 nM	4000 nM	40000 nM
DERL-7 (IL-2 2.5 ng/mL) [24]	-4.46	-3.5	-1.09	-0.28	5.07
IMC-1 (IL-2 20 ng/mL) [23]	-3.57	-3.7	-1.67	-7.03	-3.85
KAI3 (IL-2 2.5 ng/mL) [27]	-3.45	3.79	4.87	17.2	40.9
KHYG-1 (IL-2 2.5 ng/mL) [26]	-3.97	-6.87	-6.42	-6.18	-3.6
NK-92 (IL-2 2.5 ng/mL) [18]	-18.2	-9.83	-4.39	-1.7	10.6
NK-YS (IL-2 2.5 ng/mL) [21]	-5.26	-6.65	-2.31	-4.3	5.51
NKL (IL-2 2.5 ng/mL) [17]	-11.1	-8.19	-4.09	-3.02	8.99
SNK-6 (IL-2 2.5 ng/mL) [28]	7.84	-6.82	9.06	-4.15	10.8
YT (IL-2 2.5 ng/mL) [20]	-4.55	-6.6	-7.59	-8.95	-8.31
[2]	1.23	-1.48	-6.12	-0.37	32.1
[16]	-11	-0.5	-0.82	2.11	21.8
[19]	-7.23	-5.67	-9.18	0.96	16.7
[22]	-10.4	-10.4	-10.4	1.26	30.9
[25]	-3.08	-15.2	-6.52	18.4	64.8
